Source: patent US11185527B2, “Methods and compositions relating to steroid hormone receptor-dependent cancers” (Wayne State University, priority 2017, dated 2021)

Tests used:
22Rv1 cells = experiment: Cell monolayer growth assay (MTT); format: cell-based, human; conditions: enzalutamide up to 20 uM
Procedure: Twenty four hours after plating the 22Rv1 cells, they were treated with the indicated concentrations of KCI807 (FIG. 4C) or with the indicated concentrations of enzalutamide (ENZ) (FIG. 4D).
Twenty four hours after plating the cells, they were treated with the indicated concentrations of the compound.
FIG. 16D is a graph showing the effect of 5′-Fluoro-5,3′-Dihydroxyflavone at various concentrations on growth of 22Rv1 cells.
(§1) Cells were trypsinized and 3000-4000 cells/well were seeded in 96-well plates coated with poly-D-lysine. The cells were seeded in phenol red-free medium supplemented with 10% FBS, 100 units/ml penicillin, 100 μg/ml streptomycin, 2 mM L-glutamine mixture and sodium pyruvate (1 mM) for LNCaP cells and phenol red-free medium supplemented with 10% FBS, 100 units/ml penicillin, 100 μg/ml streptomycin and 2 mM L-glutamine mixture for VCaP, 22Rv1, DU145, HeLa, HEK293 and H1650 cells. The cells were grown at 37° C. in 5% CO2. Twenty four hours after seeding in the 96-well plates, the cells were treated with the indicated concentration of KCI807 or DMSO (vehicle). The cells were re-treated on Day 3 by removing half the volume of medium and replacing it with fresh treated medium. Cell viability was determined using the MTT assay from day zero until day five. MTT (10 μL, 5 mg/mL) was added to each well and incubated for 2h at 37° C. The formazan crystal sediments were dissolved in 100 μL of DMSO, and the absorbance at 570 nm was measured using the BioTek Synergy 2 Microplate Reader (BioTek, Winooski, Vt.). The assay was conducted in sextuplicate wells and values were normalized to day zero.

LNCaP cells = experiment: Cell monolayer growth assay (MTT); format: cell-based; conditions: enzalutamide up to 20 uM
Procedure: as §1, with “Twenty four hours after plating the LNCaP cells, they were treated with the indicated concentrations of KCI807 (FIG. 4E) or with the indicated concentrations of enzalutamide (ENZ) (FIG. 4F). […] Cells” for “Cells”

VCaP cells = experiment: Cell monolayer growth assay (MTT); format: cell-based
Procedure: as §1, with “Twenty four hours after plating the VCaP cells, they were treated with the indicated concentrations of KCI807 (FIG. 4G) or with the indicated concentrations of enzalutamide (ENZ) (FIG. 4H). […] Cells” for “Cells”

[1] = system: PDX-PR011 tumor xenograft; experiment: PDX-PR011 patient-derived CRPC tumor xenograft in male SCID mice, tumor growth; format: in vivo, mouse; conditions: treatment from Day 1; KCI807 IP as for 22Rv1; enzalutamide oral 50 mg/Kg daily
Procedure: FIG. 5B is a graph showing results obtained when PDX-PR011 tumor xenografts were implanted sc into male SCID mice in both flanks. The vehicle control and KCI807 were administered as described for FIG. 5A with the exception that treatment was begun on Day 1 after tumor implantation. Tumor volumes were monitored as described herein.
FIG. 14 is a graph showing results obtained when PDX-PR011 tumor xenografts were implanted sc into male SCID mice in both flanks. […] Treatment was begun on Day 1 after tumor implantation.

[2] = system: DU145 (prostate cancer cells), AR-negative; experiment: Cell monolayer growth assay (MTT); format: cell-based
Procedure: FIG. 12A is a graph showing the effect of KCI807 on in vitro growth of AR-negative cell line Du145 cells measured by the MTT assay. All values were plotted relative to the Day zero value.
FIG. 16E is a graph showing the effect of 5′-Fluoro-5,3′-Dihydroxyflavone at various concentrations on growth of DU145 cells.
as §1, with “MTT (10 μL, 5 mg/mL) was added to each well and incubated for 2h at 37° C.” left out, “The assay was conducted in sextuplicate wells and values were normalized to day zero.” left out

| SMILES | growth inhibition of 22Rv1 cells (22Rv1 cells) | growth inhibition of LNCaP cells (LNCaP cells) | growth inhibition of VCaP cells (VCaP cells) | tumor growth inhibition, PDX-PR011 xenograft [1] | growth of DU145 cells [2] |
| --- | --- | --- | --- | --- | --- |
| CNC(=O)c1ccc(N2C(=S)N(c3ccc(C#N)c(C(F)(F)F)c3)C(=O)C2(C)C)cc1F [enzalutamide] | only showed partial effects | only showed partial effects | most sensitive | not inhibited | – |
| O=c1cc(-c2cc(O)cc(F)c2)oc2cccc(O)c12 [5′-fluoro-5,3′-dihydroxyflavone] | inhibited growth | inhibited growth | inhibited growth | – | did not inhibit growth |
| O=c1cc(-c2cccc(O)c2)oc2cccc(O)c12 [KCI807, 5,3′-dihydroxyflavone] | completely inhibited cell growth | completely inhibited cell growth | most sensitive | significantly inhibited | did not appreciably affect the growth |
